Among the data in PMC10744269, “Frentizole, a Nontoxic Immunosuppressive Drug, and Its Analogs Display Antitumor Activity via Tubulin Inhibition” (International Journal of Molecular Sciences, 2023) are IC50 and melting point values, retold here.

Data set [1] relates to nontumorigenic cell line HEK-293 (human embryonic kidney cells). The data set can be described thus: MTT antiproliferative assay, HEK-293. The data set is classed as cell-based. The following applies: HEK293, 72 h after drug treatment, threshold 10 μM. Here is the method: (§1) The cell proliferation inhibitory activity of frentizole and the synthesized analogs 2–10 against representative human cancer cell lines was assayed using the MTT method (Table 1). […] For those compounds inhibiting cell proliferation by more than 40% with respect to the untreated controls at the threshold concentration, the IC50 values were calculated by measuring the proliferation inhibition in a range of concentrations from 100 to 0.001 μM and adjusting the resulting curves to sigmoidal dose–response curves. The selected cell lines were HeLa (cervix epithelioid carcinoma cells), one of the most frequent kinds of cancer, with good sensitivity against antimitotic agents, and the glioblastoma cell lines U87MG and A172. To study the selectivity of the compounds toward cancer cells versus nontumor cells, the compounds were also evaluated against the nontumorigenic cell line HEK-293 (human embryonic kidney cells) and the murine macrophage cell line J774. Sulfonamide ABT-751, as a representative of the colchicine-site ligands, and the first-line drug for the treatment of glioblastoma multiforme temozolomide (TMZ) were used as reference compounds.
(§2) The cell lines were from ATTC (Manassas, VA, USA). HeLa (human cervix epithelioid carcinoma), U87 MG (human glioblastoma), A172 (human glioblastoma), and HEK-293 (human embryonic kidney) were grown in Dulbecco’s modified Eagle’s medium (DMEM, Gibco, Waltham, MA, USA), supplemented with 10% (v/v) heat-inactivated fetal bovine serum (HIFBS, Sigma-Aldrich, St. Louis, MO, USA), 2 mM L-glutamine, 100 μg/mL streptomycin, and 100 units/mL penicillin (Gibco, Waltham, MA, USA) at 37 °C in humidified 95% air and 5% CO2. The cells were periodically tested for Mycoplasma infection using MycoAlert kit (Lonza, Norwest, Australia), and only mycoplasma-free cells were employed in the experiments.
(§3) The effect of the compounds on the proliferation of human tumor cell lines was determined as previously described using the MTT reagent 3-[4,5-dimethylthiazol-2-yl]-2,5-diphenyltetrazolium bromide, MTT Thiazolyl Blue Tetrazolium Bromide, Sigma-Aldrich, St. Louis, MO, USA) dissolved in PBS at 5 mg/mL, according to the manufacturer’s instructions. The cells were incubated in 96-well plates (100 μL/well), in complete DMEM or RPMI 1640 medium (see above), at 37 °C and 5% CO2 atmosphere for 24 h to allow for cell attachment to the plate at the following concentrations: 30,000 cells/mL (U87MG, A172, J774, and HEK-293 cells) or 15,000 cells/mL (HeLa cells). Then, every compound was added (10 μL/well) to a final concentration of 10 μM. Untreated cells were used as negative controls. The antiproliferative activity of the compounds was measured 72 h after drug exposure using the MTT assay. The IC50 value (the drug concentration required to inhibit 50% of the cell growth in respect the untreated control) was determined for those compounds showing antiproliferative effects in the initial screening at 10 μM. For this purpose, the compounds were used at different concentrations ranging from 10^−10 to […]. Measurements were performed in triplicate and each experiment was repeated three times. The IC50 values were determined using Origin software (OriginLab, Washington, DC, USA).

For data set [2], the system named is murine macrophage cell line J774. The data set is described as follows: MTT antiproliferative assay, J774. It is filed as cell-based. The following applies: Mus musculus, 72 h after drug treatment, threshold 10 μM, read-out: IC50 J-774. Here is the method: as §1, §3
(Tetrazolium assays rely on reduction of a dye to a coloured formazan, in cell work by metabolically active cells.)

The test system of data set [3] is U87 MG (human glioblastoma). The data set is described as follows: MTT antiproliferative assay, U-87 MG. The following applies: 72 h after drug treatment, threshold 10 μM. It is filed as cell-based. Here is the method:
as §1, §2, §3

Data set [4] deals with A172 (human glioblastoma). The data set can be described thus: MTT antiproliferative assay, A-172. The data set is classed as cell-based. The following applies: 72 h after drug treatment, threshold 10 μM. Here is the method: as §1, §2, §3
The subject of data set [5] is HeLa (cervix epithelioid carcinoma cells). The data set can be described thus: MTT antiproliferative assay, HeLa. The data set is classed as cell-based, human. The following applies: Homo sapiens, HeLa, 72 h after drug treatment, threshold 10 μM. Here is the method: as §1, §2, §3

Bounds are passed on as bounds.

As a reminder, the IC50 is the concentration that gives 50% inhibition. The term melting point denotes the temperature of the solid-liquid transition.

The compound `Cc1ccc2nc(NC(=O)c3ccccc3)sc2c1` [Compound 3a, N-(6-methylbenzo[d]thiazol-2-yl)benzamide] gave a melting point of 222 to 224 °C. In data set [1], this compound yielded an IC50 above 10 µM. Also, the IC50 in data set [2] was above 10 µM. The compound also gave an IC50 in data set [3] above 10 µM. In addition, the IC50 in data set [4] is above 10 µM. The compound further displayed an IC50 in data set [5] above 10 µM.

On to `Cc1cc2nc(NC(=O)c3ccccc3)sc2cc1C` [Compound 3c, N-(5,6-dimethylbenzo[d]thiazol-2-yl)benzamide], for which the melting point stood at 210 °C. In data set [1], this compound displayed an IC50 of 5.68 µM. For the same compound, the IC50 in data set [2] is 7.73 µM. In data set [3], this compound yielded an IC50 above 10 µM. In addition, the IC50 in data set [4] was above 10 µM. The IC50 in data set [5] was above 10 µM.

`Cc1cc2nc(N(C)C(=O)c3ccccc3)sc2cc1C` [Compound 3ca, N-(5,6-dimethylbenzo[d]thiazol-2-yl)-N-methylbenzamide]: the melting point worked out at 231 °C. Also, the IC50 in data set [1] was above 10 µM. Besides, the IC50 in data set [2] is above 10 µM. Further, the IC50 in data set [3] is above 10 µM. The IC50 in data set [4] was above 10 µM. Also, the IC50 in data set [5] was above 10 µM.

In the case of `COc1ccc2nc(NC(=O)c3ccccc3)sc2c1` [Compound 3e, N-(6-methoxybenzo[d]thiazol-2-yl)benzamide], the IC50 in data set [1], in data set [2], in data set [3], in data set [4] and in data set [5] was above 10 µM in each case.

In turn, `Cc1ccc2nc(NC(=O)Cc3ccccc3)sc2c1` [Compound 4a, N-(6-methylbenzo[d]thiazol-2-yl)-2-phenylacetamide] came in with a melting point of 190 to 191 °C. This compound also came in with an IC50 in data set [1] above 10 µM. Besides, the IC50 in data set [2] is above 10 µM. The IC50 in data set [3] was above 10 µM. The compound also returned an IC50 in data set [4] above 10 µM. Further, the IC50 in data set [5] is above 10 µM.

In the case of `CCNC(=O)Nc1nc2ccc(C)cc2s1` [Compound 5a, 1-Ethyl-3-(6-methylbenzo[d]thiazol-2-yl)urea], the melting point was in the range of 312 to 313 °C. The compound further came in with a 50% inhibitory concentration (IC50) in data set [1] above 10 µM. For the same compound, the IC50 in data set [2] was above 10 µM. In data set [3], the IC50 was above 10 µM. Besides, the IC50 in data set [4] was above 10 µM. The IC50 in data set [5] is above 10 µM.

As to `CCNC(=O)Nc1nc2cc(C)c(C)cc2s1` [Compound 5c, 1-(5,6-Dimethylbenzo[d]thiazol-2-yl)-3-ethylurea], the IC50 in data set [1], in data set [2], in data set [3], in data set [4] and in data set [5] was above 10 µM throughout.

`CCNC(=O)Nc1nc2ccc(OC)cc2s1` [Compound 5e, 1-Ethyl-3-(6-methoxybenzo[d]thiazol-2-yl)urea]: the IC50 in data set [1], in data set [2], in data set [3], in data set [4] and in data set [5] was above 10 µM in each case.

For the compound `Cc1ccc2nc(NC(=O)Nc3ccccc3)sc2c1` [Compound 6a, 1-(6-Methylbenzo[d]thiazol-2-yl)-3-phenylurea], the melting point was in the range of 327 to 329 °C. The compound further yielded an IC50 in data set [1] above 10 µM. Besides, the IC50 in data set [2] was found to be 1.97 µM. The compound also had an IC50 in data set [3] above 10 µM. The IC50 in data set [4] was above 10 µM. Besides, in data set [5], the IC50 was above 10 µM.

With `Cc1cc(Br)c2nc(NC(=O)Nc3ccccc3)sc2c1` [Compound 6b], the IC50 in data set [1], in data set [2], in data set [3], in data set [4] and in data set [5] was above 10 µM throughout.

In turn, `Cc1cc2nc(NC(=O)Nc3ccccc3)sc2cc1C` [Compound 6c, 1-(5,6-Dimethylbenzo[d]thiazol-2-yl)-3-phenylurea] returned a melting point above 290 °C. Besides, in data set [1], the IC50 is above 10 µM. For the same compound, in data set [2], the IC50 came out at 0.27 µM. In addition, in data set [3], the IC50 was above 10 µM. Besides, in data set [4], the IC50 is above 10 µM. Besides, the IC50 in data set [5] is above 10 µM.

As for `Cc1cc2nc(N(C)C(=O)Nc3ccccc3)sc2cc1C` [Compound 6ca, 1-(5,6-Dimethylbenzo[d]thiazol-2-yl)-1-methyl-3-phenylurea], the melting point is 179 °C. In data set [1], the IC50 is above 10 µM. In data set [2], the IC50 is above 10 µM. Also, in data set [3], the IC50 is above 10 µM. Also, in data set [4], the IC50 is above 10 µM. This compound had a half-inhibitory concentration (IC50) in data set [5] above 10 µM.

On to `COc1ccc2nc(N(C)C(=O)Nc3ccccc3)sc2c1` [Compound 6ea, 1-(6-Methoxybenzo[d]thiazol-2-yl)-1-methyl-3-phenylurea], for which the melting point was found to be 189 °C. In data set [1], this compound yielded an IC50 above 10 µM. Further, in data set [2], the IC50 was above 10 µM. The same compound had an IC50 in data set [3] above 10 µM. This compound had an IC50 in data set [4] above 10 µM. The IC50 in data set [5] was above 10 µM.

Consider `Cc1ccc2nc(NC(=O)NCc3ccccc3)sc2c1` [Compound 7a, 1-Benzyl-3-(6-methylbenzo[d]thiazol-2-yl)urea], for which the melting point lay in the range of 283.4 to 285.7 °C. For the same compound, the IC50 in data set [1] was above 10 µM. For the same compound, in data set [2], the IC50 was above 10 µM. Further, the IC50 in data set [3] is above 10 µM. Moreover, the IC50 in data set [4] was above 10 µM. For the same compound, in data set [5], the IC50 was above 10 µM.

On to `Cc1cc(Br)c2nc(NC(=O)NCc3ccccc3)sc2c1` [Compound 7b, 1-Benzyl-3-(4-bromo-6-methylbenzo[d]thiazol-2-yl)urea], for which the IC50 in data set [1], in data set [2], in data set [3], in data set [4] and in data set [5] was above 10 µM in each case.

Regarding `CCOC(=O)Nc1nc2ccc(C)cc2s1` [Compound 8a, Ethyl (6-methylbenzo[d]thiazol-2-yl)carbamate], the melting point fell in the range of 252.8 to 254 °C. Further, the IC50 in data set [1] was above 10 µM. Moreover, in data set [2], the 50% inhibitory concentration (IC50) was found to be 0.26 µM. Besides, the IC50 in data set [3] was above 10 µM. The same compound had an IC50 in data set [4] above 10 µM. Also, the IC50 in data set [5] was above 10 µM.

On to `CCOC(=O)Nc1nc2c(Br)cc(C)cc2s1` [Compound 8b, Ethyl (4-bromo-6-methylbenzo[d]thiazol-2-yl)carbamate], for which the melting point is 177 to 178 °C. In data set [1], the IC50 was above 10 µM. Further, the IC50 in data set [2] is above 10 µM. Also, the IC50 in data set [3] is above 10 µM. In data set [4], this compound yielded an IC50 above 10 µM. In data set [5], this compound had an IC50 above 10 µM.

As for `Cc1ccc2nc(NC(=O)Oc3ccccc3)sc2c1` [Compound 9a, Phenyl (6-methylbenzo[d]thiazol-2-yl)carbamate], the melting point lay within 251 to 253 °C. Also, the IC50 in data set [1] was above 10 µM. Further, the IC50 in data set [2] is above 10 µM. The IC50 in data set [3] was above 10 µM. The compound also had an IC50 in data set [4] above 10 µM. Further, the IC50 in data set [5] is above 10 µM.

Take `Cc1cc(Br)c2c(c1)SC(NC(=O)Oc1ccccc1)N2C(=O)Oc1ccccc1` (stereo not drawn) [Compound 9b, Phenyl (4-bromo-6-methyl-N-phenoxycarbonylbenzo[d]thiazol-2-yl)carbamate]: the melting point is 100 °C.

Compound `Cc1ccc2nc(NC(=O)OCc3ccccc3)sc2c1` [Compound 10a, Benzyl (6-methylbenzo[d]thiazol-2-yl)carbamate] gave a melting point of 254 to 255 °C. Besides, the IC50 in data set [1] is above 10 µM. This compound also returned an IC50 in data set [3] above 10 µM. In data set [4], this compound gave an IC50 above 10 µM. Further, the IC50 in data set [5] is above 10 µM.

Regarding `Cc1cc(Br)c2nc(NC(=O)OCc3ccccc3)sc2c1` [Compound 10b], the IC50 in data set [1], in data set [2], in data set [3], in data set [4] and in data set [5] was above 10 µM each time.
